Results published in patent publication US20070071773A1, “Compositions and methods for the treatment and prophylaxis of infections caused by gram positive bacteria” (priority 2002, published 2007).
Entries after “also recorded” stand apart in the source; their conditions may differ.

Tests used:
[1] = Neutrophil influx in mice after injection of the peptide alone; format: in vivo; details: without bacteria
Description: This is in a sharp contrast to the paucity of neutrophil influx in mice challenged with JS95 alone (FIG. 11B). Thus, a rapid recruitment of neutrophils appears necessary to confine GAS infection, subsequently preventing a systemic GAS dissemination.

[2] = system: serotype M14, M1 and M3 strains; test: Neutrophil recruitment in mice challenged with different GAS serotypes; format: in vivo, Group A Streptococcus (GAS)
Description: The absence (M1 and M3) or mutation (M14) of the gene encoding the SilCR pheromone in those GAS strains may eliminate a counter-regulatory mean to a GAS chemokine proteolysis, resulting in an increased virulence potential for invasive soft tissue infections.

GAS M1 strain 340 = test: Murine NF model: lesions after challenge with M1 strain 340; format: in vivo, Group A Streptococcus (GAS); details: co-injection of SilCR (50 μg, 90% purified) with 10^8 CFU M1 strain 340; FIG. 16C
Experimental: 16C. mice infected with 10^8 CFU of M1 strain 340+SilCR (50 μg 90% purified) 48 h after inoculation.
The ability of GAS to cause lethal infection in ten-gram BALB/c female mice (Harlan Laboratories, Jerusalem, Israel) was assessed as described before [Ravins, M. et al. J. Infect. Dis. 182:1702-11 (2000)]. Briefly, 10^8 CFU of log-phase bacteria were washed twice in PBS, resuspended in 0.1 ml PBS and injected subcutaneously into the back of a mouse. The number of CFU injected was verified for each experiment by plating bacteria on THY-blood agar plates and counting. Each group contained 8 to 10 mice that were observed daily for death and changes in the lesions' properties such as size and depth, or were sacrificed at different times after inoculation for histopathological assessment. To determine the presence of bacteria in skin and spleen, mice were sacrificed; a wide area surrounding the skin lesions was excised, spleens were removed, and organs were homogenized in 10 or 1 ml of sterile PBS, respectively. Aliquots were plated and streptococcal colonies were counted. The Institutional Ethics Committee for animal care approved all animal procedures (approval number MD 79.17-4).
GAS of M1 and M3 serotypes are commonly associated with invasive disease and NF, and each lack the SilCR gene in their locus. […]

GAS strain JS95 = test: Bacterial growth inhibition (disks on blood-agar plate; THY medium); format: cell-based, Group A Streptococcus (GAS)
Experimental: One thousands to 1500 CFU of GAS strain JS95 were spread on the surface of a blood-agar plate, incubated at room temperature and disks with different concentrations of antibiotic (control) or peptide (25, 50 and 200 μg) were placed on the surface. The plates were incubated at 37° C. for 16 hours. Areas with no hemolysis (N. hemo.) indicate inhibition of GAS growth by antibiotics. Area with hemolysis (hemo.) indicates GAS growth in the presence of 200 μg of the peptide.
The inventors next examined whether the 17 amino acid peptide of the invention protects mice challenged with highly virulent strains by inhibition of bacterial growth. Different concentrations (1000-1500 CFU) of GAS strain JS95 were spread on the surface of a blood-agar plate and incubated at room temperature. Disks loaded with different concentrations of antibiotics (control) or peptide (25, 50 and 200 μg) were placed on the surface. […] 178:6087-6090 (1996); Havarstein, et al. J. Bacteriol. 179:6586-6584 (1997)] it is plausible that the peptide acts on a TCS. This in turn activates a signal transduction process in the bacteria leading to attenuation of virulence.

[3] = system: trypsin-like GAS protease; test: Degradation of IL-8 by JS95 supernatant (Western blot, ELISA); format: biochemical, Group A Streptococcus (GAS); details: supernatant of JS95 grown without SilCR, 50 μg/ml SilCR added to the assay; FIG. 14
Experimental: (§1) […] was grown in the absence and presence of SilCR (50 μg/ml). IL-8 was incubated with the indicated supernatant fractions and then subjected to 18% SDS-PAGE. The separated protein bands were electro-transferred to a nitrocellulose membrane. Anti-IL-8 antibody and a secondary antibody conjugated to horseradish peroxidase were used to detect IL-8. The number of the lane represents incubation of IL-8 with: 1, DMEM+FCS (control); 2, JS95 supernatant; 3, JS95 supernatant grown in the presence of SilCR; 4, JS95 supernatant, pretreated with pefabloc SC; 5, supernatant of JS95 grown in the absence of SilCR, then 50 μg/ml of SilCR was added to the degradation assay.
15A The column numbers represent the ELISA results after incubation of IL-8 with: 1, DMEM+FCS (control); and the supernatants of: 2, JS95; 3, JS95 grown in the presence of SilCR; 4, JS95 pretreated with aprotenin; 5, JS95 pretreated with soybean trypsin inhibitor; 6, JS95 pretreated with benzamidine. The background of the ELISA assay (0.08±0.004) was subtracted from the shown results. The data represent the mean ± SD, of three separate experiments.
A. Cell culture of JS95 strain was grown in THY to an OD600 of 0.2. To determine the effect of SilCR on chemokine proteolysis, the culture was split into two equal fractions, of which one received SilCR (25 μg/ml). Both fractions were further incubated until they reached an OD600 of 0.3. Bacteria were washed twice with sterile PBS and once with DMEM containing 10% FCS. The washed pellets were re-suspended in DMEM supplemented with FCS to their original volumes. SilCR (50 μg/ml) was added to the fraction that was grown in the presence of SilCR, and the two fractions were further incubated for 1 h at 37° C. Supernatants were collected after centrifugation. The proteolysis reaction contained: 0.08 ml of each supernatant, 100 ng of recombinant human IL-8/CXCL8 (R&D systems, Minneapolis, Minn.) or 30 ng of recombinant murine MIP-2 (R& D systems, Minneapolis, Minn.), 20 mM MOPS pH=7.2 in a final volume of 0.1 ml. The reaction was conducted for 1 h at 37° C., and stopped by boiling for 1 min.
B. For testing protease inhibitors, the supernatants were pre-incubated with the inhibitor for 30 min at 37° C., followed by the proteolysis reaction. The following concentrations of inhibitors were used: 4 mM pefabloc SC; 0.5 mM PMSF; 0.3 μM aprotinin; 1 mM benzamidine; 100 μg/ml soybean trypsin inhibitor (STI).
(§2) C. Proteolysis of chemokines was determined by ELISA and Dot-blot. IL-8 content was quantified by ELISA using the Quantikine kit for determination of human IL-8 (R&D Systems, Minneapolis, Minn.) according to the manufacturer's instructions.

JS95 = test: IL-8 proteolytic activity of supernatant of JS95 grown in the presence of SilCR; format: cell-based, Group A Streptococcus (GAS); details: JS95 grown in the presence of SilCR (25 then 50 μg/ml); FIG. 15A
Experimental: as §1
15A The column numbers represent the ELISA results after incubation of IL-8 with: 1, DMEM+FCS (control); and the supernatants of: 2, JS95; 3, JS95 grown in the presence of SilCR; 4, JS95 pretreated with aprotenin; 5, JS95 pretreated with soybean trypsin inhibitor; 6, JS95 pretreated with benzamidine. The background of the ELISA assay (0.08±0.004) was subtracted from the shown results. The data represent the mean ± SD, of three separate experiments. […]
as §2

Sequence: DIFKLVIDHISMKARKK (SilCR peptide) [17 amino acid synthetic peptide, predicted mature form of the pheromone peptide encoded by the SilCR ORF; used at 70% or 90% purity]
- neutrophil influx [1]: did not stimulate neutrophil recruitment; also recorded: did not induce neutrophil influx
- neutrophil recruitment [2]: improved neutrophil recruitment
- lesion size and duration (GAS M1 strain 340): significantly reduced size and duration
- inhibition of GAS growth (GAS strain JS95; THY medium and blood agar plates): does not inhibit GAS growth
- bacterial growth around disk (GAS strain JS95; disks with peptide up to 200 μg on blood-agar plate, 1000-1500 CFU JS95, 37° C. 16 hours, FIG. 10): bacterial growth was observed
- IL-8 proteolysis with purified peptide added to the degradation assay [3]: did not itself block IL-8 proteolysis
- IL-8 proteolytic activity of the strain (JS95): markedly reduced
